Results on 7 molecules are retold here after patent publication US5573922A, “Immunological detection method for triazines” (Boehringer Mannheim GmbH, priority 1993, dated 1996).

The test system of experiment [1] is antiserum S 4612 (sheep antiserum against triazine). Nature of the experiment: Competitive ELISA, sheep triazine antiserum with heterologous POD conjugate atra(deethyl-4-ED)-SATP-PODp(MH). The note with it: 50 mU/ml; for lower detection limit: concentration at which signal is 80% of maximum signal; for cross reaction (%): relative to terbutylazine (quotient of hapten concentrations at half maximum signal). Type of experiment: binding. How it is done:
10 sheep are immunized with triazine immunogen according to example 1 in Freund's adjuvant. The dose is […] per animal. The immunizations are repeated over six months or longer, each at intervals of 4 weeks. Antiserum samples are taken from all animals once per month and examined for the presence of triazine antibodies. For this purpose a series of terbutylazine standards are measured in a competitive ELISA using the heterologous POD conjugate atra(deethyl-4-ED)-SATP-POD(MH) according to example 3. The procedure for this measurement is described in detail in example 5.
(§1) Microtitre plates (Maxisorp F96,Nunc Co. Order No. 4-42404) are coated with antibodies against the Fc part of sheep IgG which have been obtained by immunosorptive purification of the IgG fraction from donkey antiserum. The donkey antibody is dissolved in the coating buffer at a concentration of 10 µg/ml protein and 100 μl of this solution is pipetted into each well of the microtitre plate. After incubating for 1 hour at room temperature while shaking, the solution is discarded and the plate is washed three times with washing solution.
(§2) Sheep antiserum against triazine is diluted 1:50,000 with incubation buffer. Each well of the microtitre plate is coated with 100 μl of the diluted solution. During the incubation period (1 hour, conditions as above) the IgG molecules from the sheep serum bind to the donkey antibodies bound to the wall. They are subsequently washed as above.
A series of solutions is prepared which contain terbutylazine at concentrations of 1000/500/250/125/62.5/31/16/8/4/0 ng/l as well as the conjugate atra(deethyl-4-ED)-SATP-PODp(MH) according to the invention at a standard concentration of 50 mU/ml in the incubation buffer.
Dilution series of other triazines are prepared in a similar manner with maximum concentrations of […] (atrazine, cyanazine and desethylterbutylazine), 10,000 ng/l (propazine, simazine, desethylatrazine) and 100,000 ng/l (desisopropylatrazine) and dilution steps of 1:2 which also contain the said hapten-POD conjugate.
(§3) The wells of the microtitre plate which were precoated as previously described, are filled with these solutions (100 μl in each case), incubated for 1 hour and subsequently washed as described.
(§4) The free hapten molecules compete with the hapten-POD conjugate for the limited amount of hapten-specific antibodies on the wall of the wells. The less conjugate is bound the more free hapten is present in the solution and the better the hapten is recognized by the antibodies.
(§5) Every well is filled with 100 μl substrate solution and incubated while shaking until the colour development in the samples without hapten appears subjectively to be high enough. Then the absorbance in all wells is determined as a differential measurement at the wavelengths 405/492 nm.
(§6) In the graph of the measured signal as a function of the hapten concentration used, the "relative affinity", i.e. the hapten concentration whose measured signal is half the size of the maximum signal (at a hapten concentration of 0), is determined for each triazine compound. In this process a linear interpolation is made between selected measurement points on the curve. This gives the cross-reaction of the triazines in relation to terbutylazine as the quotient [formula]
(§7) The "lower limit of detection" is determined in an analogous manner for each triazine compound as the concentration at which the measured signal is 80% of the maximum signal.
(In an ELISA, binding on a coated surface is turned into a signal by an enzyme label.)

Experiment [2] has the same test system. Nature of the experiment: Competitive ELISA, sheep triazine antiserum with homologous POD conjugate atra(terbutyl-6ah)-OSu-POD. The experiment is classed as binding. The note with it: 30 mU/ml; for lower detection limit / lower detection limit (ng/l): concentration at which signal is 80% of maximum signal; for cross reaction (%): relative to terbutylazine (quotient of hapten concentrations at half maximum signal). How it is done: as §1, §2, §3, §4, §5, §6, §7
In a second experiment the cross reaction and the lower limit of detection for each of the above-mentioned triazines is determined in an analogous manner using the homologous conjugate atra(terbutyl-6ah)-OSu-POD. In this case the POD concentration is 30 mU/ml. The highest hapten concentrations are 10,000 ng/l for terbutylazine and 100,000 ng/l for all triazines.
Eight further hapten concentrations are prepared by serial dilution of these solutions in a ratio of 1:2 and a blank value without triazine is determined in each case.

Where only a bound is given, the exact number is not on record here.

Take `CCNc1nc(Cl)nc(NC(C)(C)C#N)n1` [cyanazine]: in experiment [1], the “lower detection limit” value is 10 ng/L and the “cross reaction (%)” value came to 102%. In experiment [2], the “lower detection limit” value was determined as 310 ng/L and the cross reaction (%) was found to be 11%.
With `CC(C)(C)Nc1nc(N)nc(Cl)n1` [desethylterbutylazine], in experiment [1], the “lower detection limit” value is 10 ng/L and the “cross reaction (%)” value came to 102%. Also, in experiment [2], the “lower detection limit” value is 430 ng/L and the cross reaction (%) is given as 9%.
As to `CCNc1nc(Cl)nc(NC(C)C)n1` [atrazine], in experiment [1], the “lower detection limit” value was found to be 17 ng/L and the “cross reaction (%)” value turned out to be 73%. In experiment [2], the “lower detection limit (ng/l)” value is 1,600 ng/l and the cross reaction (%) was 4%.
`CCNc1nc(Cl)nc(NC(C)(C)C)n1` [terbutylazine]: in experiment [1], the “lower detection limit” value was 12 ng/L and the “cross reaction (%)” value is on record as 100%. Further, in experiment [2], the “lower detection limit” value worked out at 100 ng/L and the cross reaction (%) came to 100%.
`CC(C)Nc1nc(N)nc(Cl)n1` [desethylatrazine]: in experiment [1], the “lower detection limit” value came to 90 ng/L and the “cross reaction (%)” value came to 7%. For the same molecule, in experiment [2], the “lower detection limit (ng/l)” value is 9,500 ng/l and the cross reaction (%) is given as under 0.3%.
Turning to `CCNc1nc(Cl)nc(NCC)n1` [simazine], in experiment [1], the “lower detection limit” value was 60 ng/L and the “cross reaction (%)” value stood at 10%. Further, in experiment [2], the “lower detection limit” value was found to be 4.100 ng/L and the cross reaction (%) is on record as 0.9%.
With `CC(C)Nc1nc(Cl)nc(NC(C)C)n1` [propazine], the figures for the “lower detection limit” value in experiment [1] and in experiment [2] were 24 ng/L and 620 ng/L, respectively. The entries for the “cross reaction (%)” value in experiment [1] and in experiment [2] were 26% and 8%, respectively.
